Source: patent publication US11707442B2, “Antibacterial and antifungal compounds” (The General Hospital Corporation, priority 2015, dated 2023)

Test system: S. aureus MW2 (MRSA) in neutropenic mouse thigh
Assay type: in vivo
Procedure: Deep-seated mouse thigh infection model for evaluating drug efficacy. A previously described protocol to mimic a chronic, deep-tissue infection was used with modifications (See, e.g., Conlon, B. P. et al. Activated ClpP kills persisters and eradicates a chronic biofilm infection. Nature 503, 365-370 (2013)). Six-week-old female CD1 ICR outbred mice (20-25 g) were obtained from Charles River Laboratories. To make mice neutropenic, 150 mg/kg and 100 mg/kg of cyclophosphamide were administered intraperitoneally (i.p.) at 4 days and 1 day before infection, respectively. On the day of infection, ˜10^7 cells of stationary-phase S. aureus MW2 resuspended in 50 μl saline were injected to the right thigh of each mouse. […] Control mice were injected with 200 μl of 10% Kolliphor EL/ethanol in saline i.p. every 12 h for 3 days. After euthanizing mice at 96 h post-infection, blood was collected by cardiac puncture and the infected thighs were aseptically excised. All samples were stored at 4° C. until use. Serum was analyzed for alanine aminotransferase and urea nitrogen content with commercially available kits, following the manufacturer's protocol (Pointe Scientific, Canton, Mich., USA). Thighs were homogenized in PBS and the number of MRSA in homogenates was enumerated by serial dilution and spot-plating on TSA plates, and bacterial load was recorded as CFU/g thigh tissue. […] Statistical significance among each group was analyzed by one-way ANOVA with post-hoc Tukey test using PASW Statistics 18 (SPSS Inc. Chicago, Ill., USA).
At 12 h after the last treatment, mice were euthanized and their thighs were excised and homogenized. […] Statistical differences between control and antibiotic treatment groups were analyzed by one-way ANOVA and post-hoc Tukey test (***p<0.001).
At 12 h after the last treatment, mice were euthanized, blood was collected and analyzed for ALT and BUN. […] Control and antibiotic treatment were analyzed by one-way ANOVA and post-hoc Tukey test to confirm a lack of significant difference

In the case of `O=C(O)c1ccc2cc(-c3ccc(O)c(C45CC6CC(CC(C6)C4)C5)c3)ccc2c1` [CD437, 6-(4-hydroxy-3-tricyclo[3.3.1.13,7]dec-1-ylphenyl)-2-naphthalenecarboxylic acid], the “MRSA cells killed in thigh” value (CD437 20 mg/kg i.p. alone, every 12 h for 3 days) is reported as about 90%, the “persisters killed in thigh, combination” value (CD437 20 mg/kg i.p. plus gentamicin 30 mg/kg s.c., every 12 h for 3 days) is reported as about 99% and the “serum levels of ALT or BUN” value (mouse, in vivo, ip, 20 mg/kg) is reported as “did not have elevated serum levels”.
